Values of other authors, collected in patent US20080131503A1 (priority 2005, published 2008).

Conditions: oral

Structure (SMILES): CC(C)c1c(C(=O)Nc2ccccc2)c(-c2ccccc2)c(-c2ccc(F)cc2)n1CC[C@@H](O)C[C@@H](O)CC(=O)O [Atorvastatin]
- Systemic availability of HMG-CoA reductase inhibitory activity: approximately 30%
